As usually defined, the IC50 is the concentration that gives 50% inhibition.

One data set deals with AsPC-1 xenografts. As to conditions: mouse, in vivo; cited from earlier work.
The subject of another data set is PANC-1 cells. Kind of data set: NTS1R-specific cell uptake/internalization in PANC-1 cells. In kind it is cell-based, human. The procedure: (§1) The human pancreatic adenocarcinoma AsPC-1, PANC-1, MiaCapa-2, and Capan-1 cell lines were obtained from LGC Standards GmbH (Wesel, Germany). All culture reagents were purchased from Gibco BRL, Life Technologies (Grand Island, NY, USA) or from Biochrom KG Seromed (Berlin, Germany). Cells were grown in Roswell Park Memorial Institute-1640 Medium (RPMI-1640; AsPC-1 cells) or Dulbecco’s Modified Eagle’s Medium (DMEM; PANC-1, MiaCapa-2, and Capan-1 cells) with GlutaMAX-I, supplemented with 10% (v/v) fetal bovine serum (FBS), 100 U/mL penicillin, and 100 μg/mL streptomycin, and kept in a controlled humidified air containing 5% CO2 at 37 °C. […]
(§2) For internalization assays, AsPC-1, PANC-1, MiaCapa-2, and Capan-1 cells were seeded in six-well plates (≈1 × 10^6 cells per well) the day before the experiment. […] Non-specific internalization was determined by a parallel triplicate series containing 1 μM NT. […] Sample radioactivity was measured on the gamma counter, and the percentage of specific internalized and membrane-bound fractions were calculated with Microsoft Excel (after subtracting the non-specific from the overall internalized and membrane-bound counts). Results represent the specific mean internalized ± SD of total added radioactivity per well from three experiments performed in triplicate. […]

A further data set deals with WiDr cells. Set-up: method as in PMID 32526874. As to conditions: 1 h incubation ref 39; cited from earlier work.
Another data set has as its system AsPC-1 cells. Kind of data set: NTS1R-specific cell uptake/internalization in AsPC-1 cells. In kind it is cell-based, human. As to conditions: for specific cell uptake: AsPC-1 cells, 1 h incubation at 37 °C, NTS1R-specific (non-specific with 1 μM NT subtracted). As to the method: The human pancreatic adenocarcinoma AsPC-1, PANC-1, MiaCapa-2, and Capan-1 cell lines were obtained from LGC Standards GmbH (Wesel, Germany). All culture reagents were purchased from Gibco BRL, Life Technologies (Grand Island, NY, USA) or from Biochrom KG Seromed (Berlin, Germany). Cells were grown in Roswell Park Memorial Institute-1640 Medium (RPMI-1640; AsPC-1 cells) or Dulbecco’s Modified Eagle’s Medium (DMEM; PANC-1, MiaCapa-2, and Capan-1 cells) with GlutaMAX-I, supplemented with 10% (v/v) fetal bovine serum (FBS), 100 U/mL penicillin, and 100 μg/mL streptomycin, and kept in a controlled humidified air containing 5% CO2 at 37 °C. Splitting of cells with a ratio of 1:3 to 1:5 was performed when approaching confluency, using a trypsin/EDTA (0.05%/0.02% w/v) solution.
For internalization assays, AsPC-1, PANC-1, MiaCapa-2, and Capan-1 cells were seeded in six-well plates (≈1 × 10^6 cells per well) the day before the experiment. Cells were rinsed twice with ice-cold internalization medium (IM; culture medium supplemented by 1% (v/v) FBS), and then fresh IM was added (1.2 mL) at 37 °C, followed by test radiopeptide (250 fmol total peptide in 150 μL IPBS (0.5% w/v BSA–PBS,) 100,000–200,000 cpm). Non-specific internalization was determined by a parallel triplicate series containing 1 μM NT. After incubation at 37 °C, the plates were placed on ice, the medium was collected, and the plates were washed with IPBS (1 mL). Membrane-bound fractions were collected by incubating the cells 2 × 5 min in acid-wash solution (2 × 600 µL; 50 mM glycine buffer pH 2.8, 0.1 M NaCl) at room temperature. […] Sample radioactivity was measured on the gamma counter, and the percentage of specific internalized and membrane-bound fractions were calculated with Microsoft Excel (after subtracting the non-specific from the overall internalized and membrane-bound counts). Results represent the specific mean internalized ± SD of total added radioactivity per well from three experiments performed in triplicate. […]

A further data set concerns MiaCapa-2 cells. Kind of data set: NTS1R-specific cell uptake/internalization in MiaCapa-2 cells. In kind it is cell-based, human. As to conditions: 1 h incubation at 37 °C. The procedure: as §1, §2
A further data set relates to Capan-1 cells. Kind of data set: NTS1R-specific cell uptake/internalization in Capan-1 cells. As to conditions: 1 h incubation at 37 °C. Format: cell-based, human. The procedure:
as §1, §2

Data set [1] concerns NTS1R. Set-up: method as in PMID 17594090. As to conditions: read-out: receptor affinity (IC50); cited from earlier work.
Data set [2] concerns NTS1R. Set-up: method as in PMID 21883013. As to conditions: small number of patients ref 30; cited from earlier work.
The conditions of data set [3]: mouse, 2 h; cited from earlier work.
For data set [4] the following is noted: mouse, in vivo; cited from earlier work.

Turning to “Ac–Lys(1,4,7,10-tetraazacyclododecane–1,4,7,10-tetraacetic acid)–Pro–Me–Arg–Arg–Pro–Tyr–Tle–Leu–OH [[^68Ga]Ga–DOTA–NT–20.3]”, in the data set on AsPC-1 xenografts, the kidney values entry is recorded as “about the same values”.
With “[^68Ga]Ga–NODAGA–Lys(Cy5**)–AEEAc–[Me–Arg^8,Tle^12]NT(7−13)”, the kidney values in the data set with AsPC-1 xenografts is recorded as 20 % IA/g.
For “[^99mTc]Tc–[N4–Gly^7]NT(7–13) [[^99mTc]Tc–DT1]”, the “I, internalized fraction, specific” value was 7.30±2.41 in the data set on PANC-1 cells (PANC-1, 1 h incubation, of total-added activity) and 14.11±2.28 with AsPC-1 cells (AsPC-1, 1 h incubation, of total-added activity). Moreover, the specific cell uptake is reported as 8.1% ± 2.8% in the data set on PANC-1 cells (PANC-1 cells, 1 h incubation at 37 °C, NTS1R-specific); 15.2% ± 2.6% in the data set on AsPC-1 cells; 2.7% ± 0.3% with MiaCapa-2 cells; 0.4% ± 0.1% with Capan-1 cells. For the same substance, the specific cell binding in the data set on WiDr cells is 10.1 ± 2.3%.
Regarding “[^99mTc]Tc–[N4–βAla^7,Dab^9,Tle]NT(7–13) [[^99mTc]Tc–DT6]”, the specific cell binding in the data set with WiDr cells is 1.0 ± 0.4%. Further, the IC50 in the data set with NTS1R [1] is 0.08 ± 0.02 nM. The “NTS1R targeting of tumor lesions in patients” value in the data set with NTS1R [2] is “poor NTS1R targeting of tumor lesions”. Moreover, in [3], the “stability in mice plasma, intact” value is on record as over 90%.
On to “[^99mTc]Tc–[N4–βAla^7,Dab^9]NT(7–13) [[^99mTc]Tc–DT5]”, for which, in data set [4], the “renal values in mice” value is recorded as “high renal values”. Besides, the specific cell uptake in the data set on AsPC-1 cells is listed as 8.4% ± 0.8%.

The values above are taken from PMC7663772, “Optimizing the Profile of [^99mTc]Tc–NT(7–13) Tracers in Pancreatic Cancer Models by Means of Protease Inhibitors” (International Journal of Molecular Sciences, 2020).
